The record followed here is patent US7279499B2, “Substituted benzopyrans as selective estrogen receptor-beta agonists” (Eli Lilly and Company, priority 2004, dated 2007).

The structures appear in SMILES notation.

Take `COCc1cc(O)cc2c1O[C@@H](c1ccc(O)cc1)[C@H]1CCC[C@@H]21` [Example 1B, (3aS, 4R, 9bR)-4-(4-Hydroxy-phenyl)-6-methoxymethyl-1,2,3,3a,4,9b-hexahydro-cyclopenta[c]chromen-8-ol]: the melting point lay in the range of 76 to 80 °C.
The figure for `OCc1cc(O)cc2c1O[C@@H](c1ccc(O)cc1)[C@H]1CCC[C@@H]21` (single isomer, unassigned) [Example 2B] is 195 to 197 °C.
The compound `CCOCc1cc(O)cc2c1O[C@@H](c1ccc(O)cc1)[C@H]1CCC[C@@H]21` (single isomer, unassigned) [Example 3B] yielded a melting point of 62 to 66 °C.
